Consider four compounds from patent US20220387383A1 (University of South Africa, priority 2019, published 2022).

One series concerns the target Mdm2 (Homo sapiens, UniProt Q00987). The settings on record: Warner et al. 2012; cited from earlier work.
For series [1] the following is noted: literature, in words, cited from earlier work.
The subject of another series is cholesterol absorption. The note with it: reported experiments with the initial drug lead; cited from earlier work.
The subject of series [2] is HEK293 human embryonic kidney cells. Description: MTT assay for cell viability, HEK293 normal embryonic kidney cells. The series is classed as cell-based. The settings on record: 0.1-200 μM, 48 hours. As for the experimental part:
(§1) The A375 human malignant melanoma cells, PANC-1 pancreatic cancer cells and HEK293 human embryonic kidney cells were cultured in media containing 89% DMEM, 10% FBS and 1% penicillin-streptomycin. Once confluent, the cells were washed thrice with 1×PBS and detached from T75 flasks by incubating the cells with 2 mL trypsin-EDTA for 5-10 minutes at 37° C. 2 mL DMEM was added to the cells to stop the reaction of trypsin-EDTA. […] The intensity of this colour is proportional to the state of metabolic activity in the cells and therefore the extent of cell viability. MTT is therefore used to measure the extent to which the drugs are toxic. PANC-1 pancreatic cancer, A375 malignant melanoma and HEK293 human embryonic kidney cell lines were cultured to confluence in CytoOne T75 vented cell culture flasks (USA Scientific). The cells were counted using a haemocytometer and passaged/plated into CytoOne 96 well plates (USA Scientific). […] Absorbance readings were measured at 570 nm using a 96 well plate reader. The percentage of viable cells in treated and untreated cultures was calculated and compared. […] The cell viability data was expressed as the mean±standard deviation (SD) from three independent experiments. The IC50 values were calculated using the non-linear regression test which briefly involves conversion of the ezetimibe concentrations to log values. […]
(In general: Formazan colour is commonly taken as a measure of viable cells.)

The conditions of series [3]: literature, in words, cited from earlier work. The source holds these as a separate data set.
Series [4] has as its system A375 human malignant melanoma cells. Description: MTT assay for cell viability, A375 malignant melanoma cells. The series is classed as cell-based. The note with it: for IC50: A375, MTT, 48 hours, nonlinear regression, read-out: IC50, growth inhibition of melanoma cell line. How it is done: The A375 human malignant melanoma cells, PANC-1 pancreatic cancer cells and HEK293 human embryonic kidney cells were cultured in media containing 89% DMEM, 10% FBS and 1% penicillin-streptomycin. Once confluent, the cells were washed thrice with 1×PBS and detached from T75 flasks by incubating the cells with 2 mL trypsin-EDTA for 5-10 minutes at 37° C. 2 mL DMEM was added to the cells to stop the reaction of trypsin-EDTA. […] The intensity of this colour is proportional to the state of metabolic activity in the cells and therefore the extent of cell viability. MTT is therefore used to measure the extent to which the drugs are toxic. PANC-1 pancreatic cancer, A375 malignant melanoma and HEK293 human embryonic kidney cell lines were cultured to confluence in CytoOne T75 vented cell culture flasks (USA Scientific). The cells were counted using a haemocytometer and passaged/plated into CytoOne 96 well plates (USA Scientific). Approximately 5 000 cells per 200 μl were plated. The plates were incubated overnight to allow for attachment. The medium was removed after overnight incubation. […] After incubation for 48 hours, 20 μL of MTT reagent was added and incubated for 4 hours. Approximately 200 μL of the solubilisation reagent was added to each well and incubated overnight. The MTT assay was performed using the cell proliferation kit I (MTT) (Roche, Switzerland) by following the instructions in the manual. Absorbance readings were measured at 570 nm using a 96 well plate reader. The percentage of viable cells in treated and untreated cultures was calculated and compared. All statistical analyses were performed using Prism GraphPad Software (San Diego, Calif. 92108, USA). The cell viability data was expressed as the mean±standard deviation (SD) from three independent experiments. The IC50 values were calculated using the non-linear regression test which briefly involves conversion of the ezetimibe concentrations to log values. The log values were matched with their corresponding cell viability percentages. The one sample T-test and Wilcoxon Signed Rank Test were used to determine the statistical difference between the cell viability percentage in treated cells.

Series [5] concerns PANC-1 pancreatic cancer cells. Description: MTT assay for cell viability, PANC-1 pancreatic cancer cells. It is filed as cell-based. The note with it: Homo sapiens; PANC-1, MTT, 48 hours. As for the experimental part: as §1
For series [6] the following is noted: cited from earlier work.
The mark [7] stands for this setting: ezetimibe and/or the glucuronide metabolite.

“Also recorded” adds a separate entry of the source. Where two headings read alike, the source gives them in different places.

Sequence of Mdm2 (Q00987 whole entry): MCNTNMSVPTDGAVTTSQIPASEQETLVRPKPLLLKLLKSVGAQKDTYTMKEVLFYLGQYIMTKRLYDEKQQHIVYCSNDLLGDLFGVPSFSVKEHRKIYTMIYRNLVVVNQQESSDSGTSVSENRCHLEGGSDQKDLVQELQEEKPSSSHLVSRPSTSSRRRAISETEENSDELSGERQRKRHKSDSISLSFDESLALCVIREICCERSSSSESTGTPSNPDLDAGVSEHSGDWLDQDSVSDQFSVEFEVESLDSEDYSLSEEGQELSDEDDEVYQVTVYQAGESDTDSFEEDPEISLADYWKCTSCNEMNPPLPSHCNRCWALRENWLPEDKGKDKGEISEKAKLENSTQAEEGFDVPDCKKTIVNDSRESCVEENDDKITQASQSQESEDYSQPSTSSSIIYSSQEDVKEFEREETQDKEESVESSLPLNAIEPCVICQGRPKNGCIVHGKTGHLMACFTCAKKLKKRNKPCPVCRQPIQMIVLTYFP

Turning to `COc1ccc(C2=NC(c3ccc(Cl)cc3)C(c3ccc(Cl)cc3)N2C(=O)N2CCNC(=O)C2)c(OC(C)C)c1` (stereo not shown) [nutlin-3a, 4-(4,5-bis(4-chlorophenyl)-2-(2-isopropoxy-4-methoxyphenyl)-4,5-dihydro-1H-imidazole-1-carbonyl) piperazin-2-one], at Mdm2, the “Estimated free energy of binding, kcal/mol (Patch Dock)” value was −7.7+/−0.6 kcal/mol (Warner et al. 2012). Moreover, the Bioavailability entry in series [1] is reported as “poor bioavailability”.

Turning to `COc1ccc([C@@H]2[C@@H](CCCc3ccccc3)C(=O)N2c2ccc(OC)cc2)cc1` [SCH48461], in the series on cholesterol absorption, the “Inhibition of cholesterol absorption” value is 70%.

On to `COc1cc(/C=C/C(=O)CC(=O)/C=C/c2ccc(O)c(OC)c2)ccc1O` [Curcumin], for which the Bioavailability result in series [1] is reported as “Poor”; in series [1] (listed as curcumin), “poor bioavailability; also recorded: low bioavailability”.

`O=C1[C@H](CC[C@H](O)c2ccc(F)cc2)[C@@H](c2ccc(O)cc2)N1c1ccc(F)cc1` [Ezetimibe]: the “Toxicity to normal human embryonic kidney cell line” value in series [2] is “non-toxic; also recorded: does not exhibit toxicity”. Further, the “Aqueous Solubility” value in series [3] is recorded as “Poor”; in series [3] (listed as ezetimibe) it was “highly insoluble”. Moreover, the concentration for half-maximal inhibition (IC50) in series [4] is 30.7 µM; in series [4] (Homo sapiens, A-375, 48 h) it was 30.7 µM; in series [5], 71.6 µM. Also, the inhibition at 200 µM in series [4] (Homo sapiens, A-375, A375, highest concentration, 200 μM, read-out: Inhibition of the melanoma cell line) was over 80%. The inhibition at 1 µM in series [4] (Homo sapiens, A-375, A375, lowest concentration tested, 1 μM, read-out: Inhibition of the melanoma cell line) was about 20%. For the same compound, in series [4] (cancer cells (A375 and PANC-1), MTT), the “Concentrations toxic to cancer cells” value lay in the range of 20 to 80 µM. The Bioavailability result in series [1] is reported as “poor bioavailability; also recorded: Almost negligible”; in series [1] (listed as ezetimibe), “low bioavailability”. Moreover, the “Fraction metabolised in the intestine to the glucuronide metabolite” value in series [6] (by UGT 1A1, 1A3 and 2B15) is given as “Up to 80%”. In addition, the “Excreted in the faeces” value in series [6] (setting [7]) is recorded as 90%. Further, the Excreted in urine in series [6] (setting [7]) is 10%.

As a reminder, the IC50 is the concentration needed to halve the response being measured. The inhibition is the relative decrease from the control value, in per cent.
